Data as given in ChEMBL document CHEMBL1201862, “PubChem BioAssay data set” (2004).
Activity calls are given as the source filed them.

Legend:
Protein RecA = target: T1, Protein RecA (Mycobacterium tuberculosis, UniProt P9WHJ3); assay: Fluorescence Cell-Free Homogeneous Dose Retest to Identify Inhibitors of RecA-Intein Splicing Activity. [Related pubchem assays (depositor defined):AID2097, AID2223, AID489010, AID492950]; assay type: functional
T1 sequence (P9WHJ3 whole entry): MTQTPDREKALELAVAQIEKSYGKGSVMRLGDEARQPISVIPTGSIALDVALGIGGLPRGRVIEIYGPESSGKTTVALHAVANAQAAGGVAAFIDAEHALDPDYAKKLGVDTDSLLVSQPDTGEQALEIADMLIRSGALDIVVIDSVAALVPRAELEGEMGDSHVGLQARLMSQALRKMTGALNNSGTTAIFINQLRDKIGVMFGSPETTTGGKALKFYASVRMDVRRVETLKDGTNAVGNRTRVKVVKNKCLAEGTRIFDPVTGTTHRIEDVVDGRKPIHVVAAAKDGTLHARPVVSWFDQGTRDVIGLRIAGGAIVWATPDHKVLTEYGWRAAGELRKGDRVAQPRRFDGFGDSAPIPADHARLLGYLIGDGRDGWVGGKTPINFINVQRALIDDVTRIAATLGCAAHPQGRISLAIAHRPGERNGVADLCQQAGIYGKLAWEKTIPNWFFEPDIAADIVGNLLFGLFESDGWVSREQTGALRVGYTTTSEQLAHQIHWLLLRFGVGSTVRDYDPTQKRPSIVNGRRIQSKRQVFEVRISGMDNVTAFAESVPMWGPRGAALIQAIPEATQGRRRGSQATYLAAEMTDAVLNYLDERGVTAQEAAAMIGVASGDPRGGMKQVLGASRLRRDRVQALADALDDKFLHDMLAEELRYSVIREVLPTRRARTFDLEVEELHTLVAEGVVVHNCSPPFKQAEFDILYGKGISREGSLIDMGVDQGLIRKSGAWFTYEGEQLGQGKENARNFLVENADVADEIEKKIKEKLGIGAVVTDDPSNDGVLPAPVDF

[1] = target: T2, Replicative DNA helicase DnaB (Mycobacterium tuberculosis, UniProt P9WMR3); assay: DnaB intein splicing inhibitors, dose response, biochemical, cell-free fluorescence (AID 449749); assay type: functional
T2 sequence (P9WMR3 whole entry): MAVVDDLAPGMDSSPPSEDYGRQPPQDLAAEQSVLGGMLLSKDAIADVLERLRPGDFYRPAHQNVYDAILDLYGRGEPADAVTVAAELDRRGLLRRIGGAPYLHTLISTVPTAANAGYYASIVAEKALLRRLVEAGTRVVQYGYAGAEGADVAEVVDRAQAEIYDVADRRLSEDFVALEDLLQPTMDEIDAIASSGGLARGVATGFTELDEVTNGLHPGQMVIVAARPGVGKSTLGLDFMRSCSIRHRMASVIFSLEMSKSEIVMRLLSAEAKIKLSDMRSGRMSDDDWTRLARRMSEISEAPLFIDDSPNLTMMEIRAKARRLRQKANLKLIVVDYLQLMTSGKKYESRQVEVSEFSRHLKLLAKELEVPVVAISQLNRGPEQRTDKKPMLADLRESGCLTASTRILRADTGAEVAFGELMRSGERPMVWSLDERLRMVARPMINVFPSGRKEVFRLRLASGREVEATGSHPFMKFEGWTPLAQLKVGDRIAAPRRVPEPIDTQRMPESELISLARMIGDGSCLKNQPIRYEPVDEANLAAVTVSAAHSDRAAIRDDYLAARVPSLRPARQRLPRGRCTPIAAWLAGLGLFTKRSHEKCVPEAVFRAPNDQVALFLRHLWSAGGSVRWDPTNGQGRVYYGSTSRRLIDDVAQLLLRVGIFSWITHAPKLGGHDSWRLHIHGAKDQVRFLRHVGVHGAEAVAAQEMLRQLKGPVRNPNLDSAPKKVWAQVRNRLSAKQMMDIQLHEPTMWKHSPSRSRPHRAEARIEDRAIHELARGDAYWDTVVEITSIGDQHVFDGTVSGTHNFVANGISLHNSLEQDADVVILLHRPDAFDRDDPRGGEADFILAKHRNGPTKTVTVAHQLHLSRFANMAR

Hexokinase HKDC1 = target: T3, Hexokinase HKDC1 (Homo sapiens, UniProt Q2TB90); assay: HKDC1 hexokinase inhibitors, dose response, biochemical, W721R variant (AID 504729); assay type: functional
T3 sequence (Q2TB90 whole entry): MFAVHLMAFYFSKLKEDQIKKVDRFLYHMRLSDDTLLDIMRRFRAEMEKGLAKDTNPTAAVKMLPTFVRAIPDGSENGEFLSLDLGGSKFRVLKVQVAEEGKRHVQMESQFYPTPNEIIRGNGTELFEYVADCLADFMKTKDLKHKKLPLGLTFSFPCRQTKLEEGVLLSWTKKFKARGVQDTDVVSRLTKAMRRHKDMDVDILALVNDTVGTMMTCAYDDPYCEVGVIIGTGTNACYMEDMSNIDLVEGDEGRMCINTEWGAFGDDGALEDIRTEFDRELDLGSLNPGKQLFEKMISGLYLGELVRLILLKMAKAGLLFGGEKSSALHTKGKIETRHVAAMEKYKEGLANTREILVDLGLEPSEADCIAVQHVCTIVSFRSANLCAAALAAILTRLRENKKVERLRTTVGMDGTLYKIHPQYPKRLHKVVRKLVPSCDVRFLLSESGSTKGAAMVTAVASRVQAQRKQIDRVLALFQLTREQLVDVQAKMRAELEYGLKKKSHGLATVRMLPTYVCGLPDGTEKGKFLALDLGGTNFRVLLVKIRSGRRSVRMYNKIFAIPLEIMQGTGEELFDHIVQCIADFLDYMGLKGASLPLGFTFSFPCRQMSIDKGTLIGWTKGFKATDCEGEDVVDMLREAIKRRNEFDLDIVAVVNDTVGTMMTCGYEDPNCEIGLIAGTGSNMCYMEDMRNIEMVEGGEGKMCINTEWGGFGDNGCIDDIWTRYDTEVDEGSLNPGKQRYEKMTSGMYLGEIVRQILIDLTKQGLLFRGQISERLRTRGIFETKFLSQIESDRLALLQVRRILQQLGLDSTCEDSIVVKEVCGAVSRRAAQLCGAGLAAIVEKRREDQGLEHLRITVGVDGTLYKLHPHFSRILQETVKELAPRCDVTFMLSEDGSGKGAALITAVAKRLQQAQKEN

[2] = target: T4, Low molecular weight phosphotyrosine protein phosphatase (Homo sapiens, UniProt P24666); assay type: functional; details: read-out: IC50_Mean;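 also: Dose-response confirmation assay measuring inhibition of LMPTP enzyme activity by fluorescence intensity read-out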
T4 sequence (P24666 whole entry): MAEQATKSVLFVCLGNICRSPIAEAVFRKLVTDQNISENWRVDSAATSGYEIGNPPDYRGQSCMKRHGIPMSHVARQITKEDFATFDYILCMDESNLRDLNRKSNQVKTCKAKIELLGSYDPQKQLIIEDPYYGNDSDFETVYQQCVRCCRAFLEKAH

HEK293 [3] = assay: cells; assay type: functional, cell-based; details: Homo sapiens
HEK293 [4] = assay: NOD1 signaling inhibitors, primary screen, cell-based, luminescence, uHTS (AID 1578); assay type: functional; details: Homo sapiens
HEK293 [5] = assay: cells; assay type: functional, cell-based; details: Homo sapiens; remark: listed apart in the source
HEK293 [6] = assay: NOD2 signaling inhibitors in MDP-stimulated cells, cell-based, uHTS, luminescence (AID 2001); assay type: functional; details: Homo sapiens
HEK293 [7] = assay: cells; assay type: functional, cell-based; details: Homo sapiens; remark: listed apart in the source
[8] = target: Nucleotide-binding oligomerization domain-containing protein 2 (Homo sapiens, UniProt Q9HC29); assay: NOD2 signaling inhibitors, cell-based, luminescence, uHTS, HEK293 (AID 1566); assay type: functional
Sequence of Nucleotide-binding oligomerization domain-containing protein 2 (Q9HC29 whole entry, the tested form may be a part): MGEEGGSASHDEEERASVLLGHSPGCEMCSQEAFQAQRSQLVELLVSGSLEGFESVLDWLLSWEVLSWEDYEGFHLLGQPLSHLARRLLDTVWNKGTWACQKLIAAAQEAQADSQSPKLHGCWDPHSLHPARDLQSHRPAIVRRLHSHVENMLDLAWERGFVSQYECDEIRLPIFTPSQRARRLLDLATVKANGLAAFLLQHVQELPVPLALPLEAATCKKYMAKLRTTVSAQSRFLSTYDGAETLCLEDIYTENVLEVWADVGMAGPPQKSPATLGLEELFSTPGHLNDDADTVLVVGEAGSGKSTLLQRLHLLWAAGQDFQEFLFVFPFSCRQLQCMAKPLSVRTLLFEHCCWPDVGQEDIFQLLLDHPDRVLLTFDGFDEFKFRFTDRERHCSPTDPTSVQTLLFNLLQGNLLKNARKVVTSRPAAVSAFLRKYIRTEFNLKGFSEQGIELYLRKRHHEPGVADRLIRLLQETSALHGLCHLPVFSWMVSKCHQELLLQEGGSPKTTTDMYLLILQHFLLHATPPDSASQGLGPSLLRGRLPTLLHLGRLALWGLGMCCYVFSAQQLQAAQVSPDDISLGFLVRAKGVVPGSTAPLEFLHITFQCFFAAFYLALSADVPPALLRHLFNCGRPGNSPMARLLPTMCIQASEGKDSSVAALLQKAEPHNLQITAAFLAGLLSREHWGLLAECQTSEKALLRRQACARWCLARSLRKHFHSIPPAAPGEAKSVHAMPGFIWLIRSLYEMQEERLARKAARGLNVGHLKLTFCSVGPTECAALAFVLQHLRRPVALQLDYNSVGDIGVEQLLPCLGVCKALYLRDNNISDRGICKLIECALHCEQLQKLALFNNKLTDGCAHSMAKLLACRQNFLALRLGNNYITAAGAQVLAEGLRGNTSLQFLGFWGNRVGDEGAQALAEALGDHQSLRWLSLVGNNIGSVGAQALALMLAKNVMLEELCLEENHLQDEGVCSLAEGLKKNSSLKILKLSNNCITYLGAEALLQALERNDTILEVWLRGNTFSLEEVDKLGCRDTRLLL

Vero = Vero cell cytotoxicity, cytotoxicity control for flavivirus capping enzyme inhibitors (AID 588742); assay type: functional; details: Chlorocebus sabaeus
Genome polyprotein = Genome polyprotein (dengue virus type 2, UniProt P29990); assay: Dengue-2 NS5 methyltransferase inhibitors, primary screen, biochemical, confirmation dose response (AID 588689); assay type: functional
Sequence of Genome polyprotein (P29990 2492-3391 limits assumed): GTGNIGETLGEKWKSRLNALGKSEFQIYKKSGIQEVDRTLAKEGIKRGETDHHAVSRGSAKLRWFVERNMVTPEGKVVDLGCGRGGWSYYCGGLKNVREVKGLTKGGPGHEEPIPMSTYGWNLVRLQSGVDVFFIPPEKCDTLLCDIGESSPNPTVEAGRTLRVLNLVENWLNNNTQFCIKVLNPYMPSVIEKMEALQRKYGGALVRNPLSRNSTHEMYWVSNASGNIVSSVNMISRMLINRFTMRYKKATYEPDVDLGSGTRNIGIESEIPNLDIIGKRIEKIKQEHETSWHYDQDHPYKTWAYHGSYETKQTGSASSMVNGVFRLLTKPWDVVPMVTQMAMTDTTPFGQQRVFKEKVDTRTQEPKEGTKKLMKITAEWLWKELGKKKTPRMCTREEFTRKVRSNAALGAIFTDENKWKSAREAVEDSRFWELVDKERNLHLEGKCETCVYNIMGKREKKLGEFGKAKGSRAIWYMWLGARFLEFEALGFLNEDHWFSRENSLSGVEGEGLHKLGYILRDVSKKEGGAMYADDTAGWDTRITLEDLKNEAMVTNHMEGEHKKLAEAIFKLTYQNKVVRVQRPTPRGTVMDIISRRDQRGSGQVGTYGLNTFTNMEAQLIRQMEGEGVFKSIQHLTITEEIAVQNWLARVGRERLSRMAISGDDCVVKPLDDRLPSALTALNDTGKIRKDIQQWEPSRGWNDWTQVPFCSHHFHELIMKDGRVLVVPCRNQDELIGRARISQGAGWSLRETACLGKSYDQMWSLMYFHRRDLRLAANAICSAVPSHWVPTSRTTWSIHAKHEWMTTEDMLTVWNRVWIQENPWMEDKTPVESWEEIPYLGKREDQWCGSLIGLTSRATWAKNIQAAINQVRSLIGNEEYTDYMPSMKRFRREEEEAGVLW

[9] = Luminescence Cell-Based Dose Retest to Confirm Inhibitors of Cancer Stem Cells. [Related pubchem assays (depositor defined):AID2717, AID2721]; assay type: functional, Homo sapiens; details: Homo sapiens

Structure (SMILES) | IC50 [2] | IC50 (HEK293 [3]) | EC50 (HEK293 [4]) | IC50 (HEK293 [5]) | IC50 (HEK293 [6]) | IC50 (HEK293 [7]) | EC50 [8] | also measured
Cc1ccc(S(=O)(=O)Nc2c(O)ccc3ccccc23)cc1 | – | – | – | – | – | – | – | EC50 (Protein RecA): 0.939 µM (active); AC50 [1]: 8.03 µM (active); IC50 (Hexokinase HKDC1): 16.1 µM (active)
CCOC(=O)CSc1nc2ccc(C)cc2n2cnnc12 | – | – | – | – | – | – | – | IC50 (Hexokinase HKDC1): 9.55 µM (active)
CCn1cc(C(=O)O)c(=O)c2cc(F)c(N3CCN(C(=S)NC(=O)c4cccc(C)c4)CC3)cc21 | 2.74 µM (active) | – | – | – | – | – | – | –
Cc1nc(SCCC(=O)O)c2cc(-c3ccccc3)sc2n1 | – | > 20 µM (inactive) | > 20 µM (inactive) | 4.5 µM (active) | > 20 µM (inactive) | > 20 µM (inactive) | > 20 µM (inactive) | –
O=C(Nc1ccccc1-c1nc2ccccc2s1)C1=COCCO1 | 11.7 µM (active) | – | – | – | – | – | – | –
Cc1ccc(S(=O)(=O)Nc2ccccc2-c2ccccc2NS(=O)(=O)c2ccc(C)cc2)cc1 | – | > 20 µM (inactive) | 4.99 µM (active) | 11.8 µM (active) | 10 µM (inactive) | > 20 µM (inactive) | 11.5 µM (active) | CC50 (Vero): > 40 µM (active); IC50 (Genome polyprotein): 54.8 µM (active); AC50 [9]: 6.86 µM (active)
CCn1cc(C(=O)O)c(=O)c2cc(F)c(N3CCN(C(=S)NC(=O)c4ccc(Br)cc4)CC3)cc21 | 3.17 µM (active) | – | – | – | – | – | – | –
NC(=O)c1c(NC(=O)C(=O)N2CCOCC2)sc2c1CCCC2 | – | > 20 µM (inactive) | > 20 µM (inactive) | > 20 µM (inactive) | > 20 µM (inactive) | > 20 µM (inactive) | > 20 µM (inactive) | –
